Reference: patent publication US20210145768A1, “MODULATING IMMUNE RESPONSE VIA TARGETING OF OLFACTORY RECEPTOR ACTIVITY” (La Jolla Institute for Allergy and Immunology, priority 2018, published 2021)

How the values were obtained:
Olfr2 [1] = molecular target: T1, Olfr2 (Mus musculus, UniProt Q9QWU6); experiment: Secreted cytokines in supernatants of stimulated aortas (cytokine bead array); format: cell-based; set-up: Olfr2 expression was confirmed at the protein level on F4/80^+ vascular macrophages; from tissue; host or cells: explanted whole aortas, digested aortic cell suspensions (F4/80+ vascular macrophages) and blood monocytes of Apoe-/- C57BL/6J mice; living Apoe-/- mice for the in vivo study; settings: octanal 10 μM + LPS 500 ng/mL, 12 h, cytometric bead array
T1 sequence (Q9QWU6 1-327): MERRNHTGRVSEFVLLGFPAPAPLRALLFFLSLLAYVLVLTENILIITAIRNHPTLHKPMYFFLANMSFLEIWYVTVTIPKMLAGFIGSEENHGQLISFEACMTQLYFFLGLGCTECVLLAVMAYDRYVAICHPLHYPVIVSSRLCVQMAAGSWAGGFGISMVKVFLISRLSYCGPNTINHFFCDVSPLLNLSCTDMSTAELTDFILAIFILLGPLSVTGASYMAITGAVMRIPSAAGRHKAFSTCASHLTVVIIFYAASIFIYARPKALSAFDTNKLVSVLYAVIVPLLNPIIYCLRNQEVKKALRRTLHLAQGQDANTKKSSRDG
Description: Apoe^−/− mice were fed WD for 2 weeks before sacrifice for aorta explant culture. Whole aortas were incubated in culture medium with DMSO (0.1% as a vehicle), octanal (Oct, 10 μM), LPS (500 ng/mL) alone or octanal and LPS combined (LPS+Oct) for 12 h at 37° C. and 5% CO2. Subsequently, aortas were collected and further processed as below discussed for RNA extraction, and flow cytometry analysis. Culture supernatants were collected, aliquoted, and frozen at −80° C. until further analysis.
Supernatants of stimulated cells and aortic tissue were analyzed by BD CBA Flex Sets (BD Biosciences) for mouse TNFα, CCL2, CCL4, IL-1β, or human TNF, IL6, and IL-1β according to the manufacturer's protocol. Samples were analyzed with LSR-II (BD Biosciences). Data was acquired with FACSDiva software (BD Biosciences) and analyzed with FCAP array software 3.0 (BD Biosciences).

OR6A2 = OR6A2 expression in hMDMs (real time PCR, flow cytometry); format: cell-based, human; settings: LPS + octanal
Description: BMDMs and hMDMs were incubated in culture media for 12 h at 37° C. and 5% CO2 with Oct, (10 μM), LPS (500 ng/mL) alone or combined with Oct (LPS+Oct) and DMSO (0.1%) as a control and lysed with Qiazol (500 μL; Qiagen) Similarly, whole aortas incubated as previously described were transferred into Qiazol (500 μl; Qiagen) and digested with gentleMACS™ Dissociator (Miltenyi).
Total RNA was quantified using a nanodrop spectrophotometer (Peqlab) and 500 ng were reverse transcribed into cDNA using Omniscript reverse transcriptase (Qiagen). Real time PCR reactions were performed according to the RT^2 SYBR green gene expression assay protocol (Qiagen). RT2 SYBR Green qPCR master mix and premade RT^2 qPCR Primer Assays for mouse Olfr2, Rtp1, Rtp2, Ccl2, Ccl4, Tnf, Nos2 and Gapdh were used. Similarly, real time PCR analysis of hMDMs samples was performed following the RT^2 SYBR green gene expression assay protocol (Qiagen), applying RT^2 SYBR Green qPCR master mix and premade RT^2 qPCR Primer Assays for human OR6A2, TNF, IL-6, NOS2 and GAPDH. The results were calculated applying the 2^−ΔΔCT method^32 using Gapdh/GAPDH as housekeeping gene.
BMDMs, hMDMs, mouse blood leukocytes and whole mount aortas were incubated in culture medium with Oct, (10 μM), LPS, (500 ng/mL) alone or combined (LPS+Oct) for 12h at 37° C. and 5% CO2. […]

Olfr2 [2] = molecular target: T1, Olfr2; experiment: Inflammatory gene expression (real time PCR) in explanted whole aortas treated with octanal, citral, LPS; format: cell-based; set-up: Olfr2 expression was confirmed at the protein level on F4/80^+ vascular macrophages; from tissue; host or cells: explanted whole aortas, digested aortic cell suspensions (F4/80+ vascular macrophages) and blood monocytes of Apoe-/- C57BL/6J mice; living Apoe-/- mice for the in vivo study; settings: dose response 3, 10, 30 μM octanal, 12 h

CCCCCCCC=O [octanal]
secretion of TNF, CCL2 and CCL4 protein into supernatant of treated aortas (Olfr2 [1]): enhanced production
secretion of TNF, CCL2 and CCL4 protein into supernatant of treated aortas (Olfr2 [1]; listed as Octanal): enhanced the secretion
OR6A2 mRNA expression in hMDMs (OR6A2): further augmented
octanal concentration at which enhancement of LPS-induced expression peaks (Olfr2 [2]): 3 to 10 µM
